Literature values as cited in patent US20050004065A1, “Hypoxia regulated genes” (Quark Biotech, Inc., priority 1998, published 2005).

Tested on: neuron cells
Conditions: in vitro; previously shown

| SMILES | toxicity for neuron cells |
| --- | --- |
| CC(C)C(O)CC[C@@H](C)[C@H]1CC[C@H]2[C@@H]3CC=C4C[C@@H](O)CC[C@]4(C)[C@H]3CC[C@]12C (some centres unmarked) [24-hydroxycholesterol] | toxic for neuron cells in vitro |
| C[C@H](CCCC(C)(C)O)[C@H]1CC[C@H]2[C@@H]3CC=C4C[C@@H](O)CC[C@]4(C)[C@H]3CC[C@]12C [25-hydroxycholesterol] | toxic for neuron cells in vitro |
